Assay [1] deals with Mature human adipocytes. In words: Lipolytic effect, released glycerol after 3 hours. The assay is classed as cell-based. The note with it: Adipocyte, Caffeine 300ppm, contact time 3h, read-out: released glycerol, versus negative control. As for the experimental part: In a first test, mature human adipocytes were treated with the product to evaluate for 3 hours, then titration of the released glycerol, reflecting lipolysis, was measured in the medium.

The test system of assay [2] is Mature human adipocytes. The experiment in a line: Lipolytic effect, daily titration of released glycerol over 3 days. The assay is classed as cell-based. The note with it: Caffeine 300ppm; for activation at 300 ppm: Homo sapiens, Adipocyte, read-out: released glycerol, versus negative control. As for the experimental part: (§1) Mature human adipocytes were treated with zerumbone to evaluate daily for 3 days. A daily titration of the released glycerol, reflecting lipolysis, was measured in the medium, before the media were changed in order to monitor the long-term effect.
In a second test, mature human adipocytes were treated with the product to evaluate daily for 3 days. A daily titration of the released glycerol was performed in the media, just before changing of the media in order to monitor the long term effect. Table 19: Comparison of the lipolytic effect of caffeine, zerumbone and of a mixture of caffeine and zerumbone on hypertrophied adipocytes in monolayer (n=4) at short and long term.

For the next assay, the system named is mature adipocytes. In words: Intracellular triglyceride quantity in mature adipocytes. The assay is classed as cell-based, human. The conditions noted are these: Caffeine 300ppm. Here is the method:
as §1
Table 5: comparison of the intracellula triglyceride quantity found in mature adipocytes
Table 20: Comparison of the intracellular triglyceride content found in the mature adipocytes; compared effect of zerumbone, caffeine and of a mixture of zerumbone and caffeine.

The next assay relates to Sirtuin-1. The experiment in a line: Sirtuin-1 level in keratinocytes, ELISA. The assay is classed as cell-based. The conditions noted are these: Homo sapiens, Keratinocyte, 144 h, positive control at 500µm, read-out: Sirtuin-1 % Variation. Here is the method: Human keratinocytes were cultured in the presence or absence of the Globularia cordifolia extract for 6 days and were then grinded and the intracellular levels of sirtuin-1 were measured using an ELISA method. Results were standardized by parallel measurement of total protein (BCA).
(In general: ELISA stands for enzyme-linked immunosorbent assay.)

The next assay relates to BSA. In words: Anti-glycation activity, BSA and fructose, fluorescence. The assay is classed as biochemical. The note with it: positive control at 0.03%. The source says: The anti-glycation effect of the extract of Globularia cordifolia was studied using a protein model, the BSA, and a natural reducing sugar, fructose which glycates, i.e. binds, to the protein in a non-enzymatic manner. The product of this binding is fluorescent and is monitored with a fluorimeter.

Structures are written as SMILES.

Regarding `Cn1c(=O)c2c(ncn2C)n(C)c1=O` [Caffeine, caffeine], the activation at 300 ppm with Mature human adipocytes [1] was found to be 171%; in the assay on Mature human adipocytes [2] (24 h, contact time 1 day), 200%; in the assay on Mature human adipocytes [2] (48 h, contact time 2 days), 34%; in the assay on Mature human adipocytes [2] (72 h, contact time 3 days), 18%. For the same compound, in the assay on Mature human adipocytes [2] (contact time 1 day), the “released glycerol, versus negative control” value is “+200%”. Also, the Triglycerides in the assay with mature adipocytes was determined as 7120 ± 542 µM/10^6 cell. The inhibition at 300 ppm in the assay with mature adipocytes (Homo sapiens, Adipocyte, 72 h, dns, read-out: Triglycerides Variation (%)) was found to be 9%.

In the case of `Cc1c(C)c2c(c(C)c1O)CCC(C)(C(=O)O)O2` (stereo not drawn) [Trolox], in the assay with Sirtuin-1, the activation at 500 µM is 27%.

Turning to `N=C(N)NN` [aminoguanidine], the “Glycation % Variation” value with BSA is -85%.

For the origin of these results see patent EP2802310B1, “NEW USE OF ZERUMBONE AND COMPOSITIONS COMPRISING ZERUMBONE” (Sederma, priority 2012, dated 2013).
